Experimental data published in patent publication EP2527351B1, “Lipophosphonoxins, method of their preparation and use” (priority 2011, dated 2012).
Converted amounts (≈) assume the structure as drawn.

Columns and labels:
[1] = system: normal erythroid progenitor cells; assay: CellTiter-Blue Cell Viability Assay; type: cell-based, Human; conditions: 48 hours of incubation
Protocol: Human immature erythroid progenitors isolated from umbilical cord blood are cultivated in the StemSpan serum-free medium (StemCell Technologies) in the presence of the stem cell factor (SCF, 100 ng/ml), erythropoetin (EPO, 33.34 nkat/ml) and dexamethasone (1 µmol.l^-1) (Panzenbock et al. 1998). Cells are plated at 25000 cells/well/20 µl in 384-well plates immediately before addition of lipophosphonoxine compound from particular examples. After 48 hours of incubation at 37 °C in 5% CO2 viability is determined by using the commercial CellTiter-Blue® Cell Viability Assay (Promega, Cat.# G8082). The assay is based on the ability of living cells to convert a redox dye (resazurin) into a fluorescent end product (resorufin). […] The homogeneous assay procedure involves adding the single reagent directly to cells cultured in serum-supplemented medium. After an incubation step, data are recorded.
(§1) The fluorescence intensity is measured using the EnVision plate reader (PerkinElmer). Data are analyzed using GraphPad Prism 5.0 statistical software.

[2] = system: normal human erythroid progenitor cells; assay: CytoTox-ONE Homogeneous Membrane Integrity Assay (LDH release); type: cell-based; conditions: cytotoxicity, CytoToxOne, after 4 hours
Protocol: Human immature erythroid progenitors isolated from umbilical cord blood are cultivated in the StemSpan serum-free medium (StemCell Technologies) in the presence of the stem cell factor (SCF, 100 ng/ml), erythropoetin (EPO, 33.34 nkat/ml) and dexamethasone (1 µmol.l^-1) (Panzenbock et al. 1998). Cells are plated at 25000 cells/well/20 µl in 384-well plates immediately before addition of lipophosphonoxine compound from particular examples. After 48 hours of incubation at 37 °C in 5% CO2 viability is determined by using the commercial CellTiter-Blue® Cell Viability Assay (Promega, Cat.# G8082). […] After an incubation step, data are recorded.
Cytotoxicity is determined after 4 hours at 37 °C in 5% CO2 using commercial CytoTox-ONE™ Homogeneous Membrane Integrity Assay (Promega, Cat.# G7892), a fluorometric method for estimating the number of non-viable cells present in multiwell plates. […] LDH released into the culture medium is measured with a 10-minute coupled enzymatic assay that results in the conversion of resazurin into a fluorescent resorufin product. The amount of fluorescence produced is proportional to the number of lysed cells.
as §1

E. faecalis CCM 4224 = assay: Microdilution MIC, reference strain; conditions: read after 24/48 hours at 37°C
Protocol: (§2) Antimicrobial activity is assessed using the standard microdilution method determining the minimum inhibitory concentration (MIC) of the tested samples leading to inhibition of bacterial growth. Disposable microtitration plates are used for the tests. The samples were diluted in brain heart infusion broth (Himedia, Laboraties Pvt. Ltd., ? eská republika) and Mueller-Hinton broth (HiMedia Laboraties, see above) to yield a concentration range between 200 µg/ml and 1.5625 µg/ml. The plates are inoculated with a standard amount of the tested microbe - the inoculum density in each well is equal to 10^5-6 CFU/ml. The MIC is read after 24/48 hours of incubation at 37°C as the minimum inhibitory concentration of the tested substance that inhibits the growth of the bacterial strains.
(§3) Standard reference bacterial strains (E. faecalis CCM 4224, S. aureus CCM 4223) from the Czech Collection of Microorganisms (CCM), Faculty of Science, Masaryk University Brno, S. agalactiae, B. subtilis, methicilin-resistant S. aureus 4591, fluoroquinolone-resistant S. haemolyticus 16568, vancomycin-resistant E. faecium VanA419/ana and methicilin-resistant S. epidermidis 8700/B strains obtained from the Teaching Hospital Olomouc were used. All tested microorganisms were stored in cryotubes (ITEST plus, Czech Republic) at -80°C.

B. subtilis = assay: Microdilution MIC, reference strain; conditions: read after 24/48 hours at 37°C
Protocol: as §2, §3

S.agalactiae = assay: Microdilution MIC, reference strain; conditions: read after 24/48 hours at 37°C
Protocol: as §2, §3

S. aureus MRSA 4591 = assay: Microdilution MIC, resistant strain; conditions: methicilin-resistant strain, 24/48 hours at 37°C
Protocol: as §2
(§4) Standard reference bacterial strains (E. faecalis CCM 4224, S. aureus CCM 4223) from the Czech Collection of Microorganisms (CCM), Faculty of Science, Masaryk University Brno, S. agalactiae, B. subtilis, methicilin-resistant S. aureus 4591, fluoroquinolone-resistant S. haemolyticus 16568, vancomycin-resistant E. faecium VanA419/ana and methicilin-resistant S. epidermidis 8700/B strains obtained from the Teaching Hospital Olomouc were used. All tested microorganisms were stored in cryotubes (ITEST plus, Czech Republic) at -80°C. […]

S. haemolyticus 16568 = assay: Microdilution MIC, resistant strain; conditions: fluoroquinolone-resistant strain, 24/48 hours at 37°C
Protocol: as §2, §4

E. faecium VanA 419/ana = assay: Microdilution MIC, resistant strain; conditions: vancomycin-resistant strain, 24/48 hours at 37°C
Protocol: as §2, §4

S. epidermidis 8700/B = assay: Microdilution MIC, resistant strain; conditions: methicilin-resistant strain, 24/48 hours at 37°C
Protocol: as §2, §4

[3] = system: Giardia trophozoite growth; conditions: cited from earlier work
cyst formation = conditions: cited from earlier work
[4] = system: Mycobacterium tuberculosis strains; conditions: drug-susceptible strains, in vitro; cited from earlier work
mice = conditions: mouse, in vivo; cited from earlier work

| Compound | IC50 [1] [µg/mL] | [Max. safety concentration] [1] [µg/mL] | MIC E. faecalis CCM 4224 (E. faecalis CCM 4224) | MIC B. subtilis (B. subtilis) | MIC S.agalactiae (S.agalactiae) | MIC E. faecium VanA 419/ana (E. faecium VanA 419/ana) | MIC S. epidermidis 8700/B (S. epidermidis 8700/B) | also measured |
| --- | --- | --- | --- | --- | --- | --- | --- | --- |
| CCCCCCCCCCCCCCOP(=O)(CCN1C[C@@H](O)[C@H](O)C1)OC[C@H]1O[C@@H](n2ccc(=O)[nH]c2=O)[C@H](O)[C@@H]1O (stereo partly drawn) [Example 17, Tetradecyl uridin-5'-yl 2-([3R,4R]-3,4-dihydroxypyrrolidin-l-N-yl)ethylphosphonate] | 47 (≈ 74.2 µM) | 31 | 12,5 µg/ml | 6,25 µg/ml | 6,25 µg/ml | 12,5 µg/ml | 12,5 µg/ml | EC50 [2]: 302 µg/mL (≈ 477 µM); [Max. safety concentration] [2]: 125 µg/mL; MIC S. aureus MRSA 4591 (S. aureus MRSA 4591): 25 µg/mL (≈ 39.4 µM); MIC S. haemolyticus 16568 (S. haemolyticus 16568): 12,5 µg/ml |
| O=c1ccn([C@@H]2O[C@H](COP(=O)(O)CCN3C[C@@H](O)[C@H](O)C3)[C@@H](O)[C@H]2O)c(=O)[nH]1 [phosphonoxin] |  |  |  |  |  |  |  | vegetative growth [3]: potently inhibited; cyst formation (cyst formation): did not specifically inhibit |
| Hexadecyloxypropyl uridin-5'-yl 2-([3R,4S,5S]-3,4-trihydroxypiperidin-1-N-yl)ethyl-phosphonate [Example 12] | 141 | 62 |  |  | 12,5 µg/ml |  |  |  |
| Hexadecyloxypropyl uridin-5'-yl 2-([3R,5R]-3,4-dihydroxypiperidin-1-N-yl)ethyl-phosphonate [Example 11] | 40 | 31 | 12,5 µg/ml | 6,25 µg/ml | 6,25 µg/ml | 6,25 µg/ml | 6,25 µg/ml |  |
| Hexadecyloxypropyl uridin-5'-yl 2-([3R,5R]-3,4-dihydroxypiperidin-1-N-yl)ethylphosphonate [Example 13] | 45 | 15 |  |  | 6,25 µg/ml |  |  |  |
| caprazamycins [CPZs] |  |  |  |  |  |  |  | MIC [4]: 3.13 µg/mL; toxicity in mice (mice): no significant toxicity |
